Results from PMC10981727, “Design, synthesis and bioactivity study on oxygen-heterocyclic-based pyran analogues as effective P-glycoprotein-mediated multidrug resistance in MCF-7/ADR cell” (Scientific Reports, 2024).
Where two headings read alike, the source gives them in different places.

Experiments:
[1] = test system: MCF-7/ADR cells; assay: Cell cycle assay (propidium iodide flow cytometry); format: cell-based; settings: treated at IC50 value for 24 h; for percentage of MCF-7/ADR cells in S phase (%DIP S): untreated control 29.61%
Protocol: The most powerful recently synthesized substances 4a–c on regulating cell cycle progression of MCF-7/ADR cells was analyzed by the flow cytometry, exploiting the FACS Calibers (Becton Dickinson). […] Cell cycle progression results of compounds 4a and 4b show cell cycle arrest at S phase with 41.17% and 34.62% respectively compared to 29.61% of the negative untreated control. […] Cell cycle arrest and distribution were done using Propidium Iodide Flow Cytometry Kit (ab139418, Abcam) as previously described. […] The DNA content in each cell nucleus was determined by a FACS Calibur flow cytometer (BD Biosciences, Franklin Lakes, NJ, USA).

[2] = test system: human diploid fibroblasts (WI-38); assay: MTT viability assay, normal WI-38; format: cell-based; settings: normal cell line, 24 h, mean ± standard error
Protocol: (§1) Using concentrations ranging from 0 to 100 μM against PC-3, SKOV-3, and HeLa cancerogenic cell lines, target compounds 4a–l were assessed for their anticancer activities[53] and compared with the commercially available Vinblastine and Doxorubicin. […] The compounds with the greatest cytotoxic activity against the cancerous cell lines PC-3, SKOV-3, and HeLa were 4a–c, 4g, and 4h. […] We selected the cytotoxic active compounds 4a–c, 4g, and 4h to be evaluated against MCF-7/ADR cancerogenic and HFL-1 and WI-38 non-cancerogenic cell lines (Figs. 7, 8 and Table 1).
(§2) The tumor cell lines (PC-3, SKOV-3, and HeLa), resistant cell strains (MCF-7/ADR) and the normal cell lines, (HFL-1, WI-38) were obtained from the American Type Culture Collection (ATCC, Rockville, MD, USA).
(§3) The tumor cell lines were suspended in medium at concentration 5 × 10^4 cells well^−1 in Corning® 96-well tissue culture plates and then incubated for 24 h. The tested compounds with concentrations ranging from 0 to 100 μM were then added into 96-well plates (six replicates) to achieve six different concentrations for each compound. Six vehicle controls with media or 0.5% DMSO were run for each 96 well plate as a control. After incubating for 24 h, the numbers of viable cells were determined by the MTT test[53]. Briefly, the media was removed from the 96 well plates and replaced with 100 μl of fresh culture RPMI 1640 medium without phenol red then 10 μl of the 12 mM MTT stock solution (5 mg of MTT in 1 ml of PBS) to each well including the untreated controls. The 96-well plates were then incubated at 37 °C and 5% CO2 for 4 h. An 85-μl aliquot of the media was removed from the wells, and 50 μl of DMSO was added to each well and mixed thoroughly with the pipette and incubated at 37 °C for 10 min. Then, the optical density was measured at 590 nm with the microplate reader (Sunrise, TECAN, Inc, USA) to determine the number of viable cells and the percentage of viability was calculated as […] where ODt is the mean optical density of wells treated with the tested sample and ODc is the mean optical density of untreated cells. The relation between surviving cells and drug concentration is plotted to get the survival curve of each tumor cell line after treatment with the specified compound. The 50% inhibitory concentration (IC50), the concentration required to cause toxic effects in 50% of intact cells, was estimated from graphic plots of the dose response curve for each concentration.

[3] = target: T1, P-gp (Homo sapiens, UniProt P08183); assay: cell-based
Protocol: Absorbance at 450 nm of each well was measured using Spectramax Gemini fluorescence microplate reader (Molecular Devices, Sunnyvale, CA, USA). The total content of Rhodamine in each sample was determined by comparison with a Rhodamine standard curve.

[4] = test system: PC-3; assay: MTT viability assay, PC-3; format: cell-based; settings: MTT, 24 h incubation, mean ± standard error
Protocol: as §1, §2, §3

[5] = test system: human fetal lung (HFL-1); assay: MTT viability assay, normal HFL-1; format: cell-based; settings: HFL1, normal cell line, 24 h, mean ± standard error
Protocol: as §1, §2, §3

[6] = test system: MCF-7/ADR cells; assay: Annexin V-FITC/PI apoptosis assay; format: cell-based; settings: treated at IC50 value for 24 h; for necrosis (upper left quadrant, PI / Annexin V-FITC plot): control 1.56%; for total apoptosis percentage: equals sum of the three quadrants
Protocol: P-gp inhibits apoptosis by preventing the release of cytochrome c which is mediated by the intrinsic mitochondrial pathway. Also, blocking cell cycle progression, inducing apoptosis or the combined effect of both are one of the indicated mechanisms for the cytotoxic effect of the chemotherapeutic drugs. Therefore, further assessment of the pivotal relationship between the newly synthesized MCF-7/ADR anticancer compounds and apoptosis was measured by the means of the Annexin V/PI double staining flow cytometric assay.
Apoptosis assay was performed with an Annexin V-FITC/PI double staining apoptosis detection kit (K101, Biovison) using a flow cytometer. […] Cells were harvested by the trypsinization, washed twice with 4 °C PBS, and re-suspended in the binding buffer. Subsequently, the Annexin V-FITC and Propidium iodide (PI) solutions were added to stain the cells before the analysis by the flow cytometry, where a minimum of 10,000 cells per sample were acquired. The Annexin V-FITC binding (FL1) and PI (FL2) were analyzed, using the Cell Quest Pro software (BD Biosciences).

[7] = target: T1, P-gp; assay: in vitro; settings: MCF-7/ADR cells (cell lysate)
Protocol: (§4) The content of P-gp in the MCF-7/ADR cell lysates after incubation with varying conc. […] Absorption was recorded at 450 nm with a Spectramax Gemini fluorescence microplate reader (Molecular Devices, Sunnyvale, CA, USA)[78].

[8] = test system: MCF-7/ADR; assay: MTT viability assay, resistant MCF-7/ADR; format: cell-based; settings: MTT, 24 h exposure, mean ± standard error
Protocol: as §1, §2, §3

[9] = test system: SKOV-3; assay: MTT viability assay, SKOV-3; format: cell-based; settings: for IC50: MTT, 24 h incubation, mean ± standard error; for times more potency than Doxorubicin, SKOV-3 / times more potency than Vinblastine, SKOV-3: ratio of IC50 values
Protocol: as §1, §2, §3

[10] = test system: HeLa; assay: MTT viability assay, HeLa; format: cell-based; settings: 24 h incubation, mean ± standard error
Protocol: as §1, §2, §3

[11] = target: T1, P-gp
Protocol: as §4

T1 sequence (P08183 whole entry): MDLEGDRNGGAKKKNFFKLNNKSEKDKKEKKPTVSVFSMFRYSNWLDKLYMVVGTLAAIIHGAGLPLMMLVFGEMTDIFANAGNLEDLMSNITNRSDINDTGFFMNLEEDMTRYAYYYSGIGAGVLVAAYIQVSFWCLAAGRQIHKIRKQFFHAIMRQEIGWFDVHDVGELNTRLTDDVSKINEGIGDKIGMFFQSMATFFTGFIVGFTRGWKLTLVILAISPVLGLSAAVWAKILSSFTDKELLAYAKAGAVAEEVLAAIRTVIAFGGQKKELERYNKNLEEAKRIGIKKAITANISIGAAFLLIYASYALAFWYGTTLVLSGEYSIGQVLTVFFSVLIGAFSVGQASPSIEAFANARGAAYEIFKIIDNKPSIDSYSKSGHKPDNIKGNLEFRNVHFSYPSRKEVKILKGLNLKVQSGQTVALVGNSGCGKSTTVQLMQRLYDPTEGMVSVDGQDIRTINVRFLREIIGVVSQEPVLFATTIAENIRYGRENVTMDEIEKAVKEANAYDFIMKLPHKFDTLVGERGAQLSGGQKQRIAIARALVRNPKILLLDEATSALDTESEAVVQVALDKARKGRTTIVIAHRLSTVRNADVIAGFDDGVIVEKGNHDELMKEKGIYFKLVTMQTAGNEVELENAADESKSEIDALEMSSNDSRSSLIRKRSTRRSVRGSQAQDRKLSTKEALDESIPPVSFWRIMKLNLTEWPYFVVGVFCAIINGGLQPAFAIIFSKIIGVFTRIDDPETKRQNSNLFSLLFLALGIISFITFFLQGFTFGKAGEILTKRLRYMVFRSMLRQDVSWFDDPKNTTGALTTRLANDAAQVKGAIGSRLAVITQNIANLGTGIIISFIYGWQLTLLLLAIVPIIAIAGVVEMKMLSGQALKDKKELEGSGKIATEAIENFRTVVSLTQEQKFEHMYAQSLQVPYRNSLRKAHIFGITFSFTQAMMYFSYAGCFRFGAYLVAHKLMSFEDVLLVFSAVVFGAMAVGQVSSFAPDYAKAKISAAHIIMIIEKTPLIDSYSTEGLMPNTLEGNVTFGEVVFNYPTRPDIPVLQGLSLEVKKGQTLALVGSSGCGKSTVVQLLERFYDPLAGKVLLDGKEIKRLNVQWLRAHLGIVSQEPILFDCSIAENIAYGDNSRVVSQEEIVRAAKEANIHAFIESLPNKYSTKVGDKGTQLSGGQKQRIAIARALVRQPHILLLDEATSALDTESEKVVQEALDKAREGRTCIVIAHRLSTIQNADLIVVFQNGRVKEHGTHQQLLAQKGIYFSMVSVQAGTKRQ

IC50 [3] [µM]	IC50 ([4]; Homo sapiens, PC-3) [µM]	melting point [°C]	IC50 at 48 h [7] [µM]	IC50 ([8]; Homo sapiens, NCI/ADR-RES) [µM]	IC50 ([9]; Homo sapiens, SK-OV-3) [µM]	IC50 ([10]; Homo sapiens, HeLa) [µM]	Compound	percentage of MCF-7/ADR cells in S phase (%DIP S) [1] [%]	IC50 [2] [µM]	IC50 [5] [µM]	necrosis (upper left quadrant, PI / Annexin V-FITC plot) [6] [%]	total apoptosis percentage [6] [%]	times more potency than Doxorubicin, SKOV-3 [9] [times]	times more potency than Vinblastine, SKOV-3 [9] [times]	percentage of MCF-7/ADR cells in G2/M phase (%DIP G2/M) ([1]; untreated control 15.01%) [%]	IC50 [4] [µM]	IC50 [11] [µM]	IC50 [8] [µM]	IC50 [9] [µM]	IC50 [10] [µM]
30.9	1.8 ± 0.3	272	34.7	9.5 ± 0.3	0.6 ± 0.2	1.5 ± 0.3	N#CC1=C(N)Oc2ccc3ccc(O)cc3c2C1c1ccc(F)cc1 (centres unmarked) [4a, 3-Amino-1-(4-fluorophenyl)-9-hydroxy-1H-benzo[f]chromene-2-carbonitrile]	41.17	83.7 ± 1.1	69.8 ± 0.3	16.42	31.98	1.8	5.3						
13.3	3.3 ± 0.5	262 to 263	15.4	5 ± 0.1	0.7 ± 0.2	2.4 ± 0.2	N#CC1=C(N)Oc2ccc3ccc(O)cc3c2C1c1ccccc1Cl (centres unmarked) [4b, 3-Amino-1-(2-chlorophenyl)-9-hydroxy-1H-benzo[f]chromene-2-carbonitrile]	34.62	61.1 ± 0.1	72 ± 0.2		43.51	1.6	4.6						
21.5	2.3 ± 2.2	260 to 261	27.3	10.7 ± 0.3	0.8 ± 0.1	2.1 ± 0.2	N#CC1=C(N)Oc2ccc3ccc(O)cc3c2C1c1cccc(Cl)c1 (centres unmarked) [4c, 3-Amino-1-(3-chlorophenyl)-9-hydroxy-1H-benzo[f]chromene-2-carbonitrile]		58.2 ± 1.1	56.5 ± 1.2		36.17	1.4	4	29.54					
							Doxorubicin [reference compound]				3.33	29.59				1.3 ± 0.3	50.9	18.6 ± 0.2	1.1 ± 0.2	1.5 ± 0.3
